{
  "source": "patent US9156889B2",
  "about": "“Drug transporter permeating blood-brain barrier, peptide and use thereof” (priority 2011, dated 2015)",
  "key": {"[1]": {"test_system": "poliovirus (Mahoney strain)", "format": "binding"}, "[2]": {"test_system": "poliovirus (Mahoney strain)", "format": "binding", "remark": "listed apart in the source"}, "[3]": {"test_system": "poliovirus (Mahoney strain)", "format": "binding", "remark": "listed apart in the source"}, "[4]": {"test_system": "Mouse brain capillary endotherial cells (MBEC) 4"}, "[5]": {"test_system": "Mouse brain capillary endotherial cells (MBEC) 4", "remark": "listed apart in the source"}},
  "note": "Where no end group is shown, it is not given here.",
  "data": [
    {"substance": "GST-mTfR1 (TQFPPSQSS; not fully specified (N-terminus))", "values": [
      {"measurement": "binding to poliovirus: band in western blotting after purification", "setting": "[1]", "result": "band was similarly detected"}
    ]},
    {"substance": "SEQ ID NO: 6 (TQFPPSRSS; listed as Homo sapiens)", "values": [
      {"measurement": "binding to poliovirus (western blotting after purification)", "setting": "[2]", "result": "directly involved with the binding to poliovirus"}
    ]},
    {"substance": "SEQ ID NO: 7 (TQFPPVASS; listed as Homo sapiens)", "values": [
      {"measurement": "binding to poliovirus (western blotting after purification)", "setting": "[2]", "result": "directly involved with the binding to poliovirus"}
    ]},
    {"substance": "SEQ ID NO: 8 (TQFPPVESS; listed as Mus musculus)", "values": [
      {"measurement": "binding to poliovirus (western blotting after purification)", "setting": "[2]", "result": "directly involved with the binding to poliovirus"}
    ]},
    {"substance": "Strep-mTfR1", "values": [
      {"measurement": "binding to poliovirus: bands in western blotting after purification", "setting": "[3]", "result": "bands were detected"},
      {"measurement": "binding to poliovirus: band in western blotting after purification", "setting": "[1]", "result": "band was detected"}
    ]},
    {"substance": "dextran", "values": [
      {"measurement": "PS value (permeation rate, permeation activity)", "setting": "[4]", "result": 0.20}
    ]},
    {"substance": "fluorescence-labeled transferrin", "values": [
      {"measurement": "PS value", "setting": "[5]", "result": 0.33}
    ]},
    {"substance": "transferrin", "values": [
      {"measurement": "effect on the permeation of poliovirus through the blood-brain barrier", "setting": "[4]", "result": "inhibits the permeation of poliovirus"}
    ]}
  ]
}
